These results are taken from PubChem BioAssay AID1189 (EPA DSSTox, 2008).

Molecules are shown by their SMILES. Calls of active or inactive are those of the source.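 The calls were made as follows: active = a tumor-causing dose value with its tumor site reported for any sex and species group of a rodent or other animal cancer study; inconclusive = only studies judged inadequate by the national testing program; inactive = tested in at least one study, none positive.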

The data set can be described thus: DSSTox (CPDBAS) Carcinogenic Potency Database Summary SingleCellCall Results. Particulars: animal chronic carcinogenicity bioassays, CPDB summary call. The text has this:
The Carcinogenic Potency Database (CPDB) is a unique and widely used international resource of the results of over 6500 chronic, long-term animal cancer tests on over 1500 chemical substances. The CPDB provides easy access to the bioassay literature, with qualitative and quantitative analyses of both positive and negative experiments that have been published over the past 50 years in the general literature and by the National Cancer Institute/National Toxicology Program. The CPDB standardizes the diverse literature of cancer bioassays that vary widely in protocol, histopathological examination and nomenclature, and in the published author's choices of what information to provide in their papers. Results are reported in the CPDB for tests in rats, mice, hamsters, dogs, and nonhuman primates, and are based on the most positive result among all experiments for each sex-species. The DSSTox CPDBAS (all species) file incorporates data from the CPDB Summary Tables for the full list of over 1500 chemical substances tested in at least one species. A summary SingleCellCall, based on experimental bioassay results of one or more species, is provided for the entire DSSTox CPDBAS file (see Source URL).
An assignment of categorical carcinogenic activity based on minimal evidence for or against activity. […] Associated TD50 values and tumor site details for the relevant species/sex experiment supporting this overall CPDBAS SingleSiteCall are provided in the full CPDBAS DSSTox file (see Comment) and the corresponding CPDBAS Species Bioassay in PubChem.
Consider `Nc1nc(N)nc(-c2ccc([N+](=O)[O-])o2)n1`, for which the result was active.
Next, `CC1=C(C(=O)OC(C)C)C(c2cccc([N+](=O)[O-])c2)C(C(=O)OC2CN(C(c3ccccc3)c3ccccc3)C2)=C(N)N1` (stereo not drawn): “inactive; active”; `CCN(C#N)N=O`: “active”; `Cc1c(-c2cnccn2)ssc1=S`: “inactive; active”.
For `C=C(C)[C@H]1CC=C(C)CC1` the value was “active”; for `O=P(O)(O)O`, “inactive; active”.
As to `OCCBr`, the outcome is “active; inactive”.
For `CCCCCCN(N=O)C(N)=O` the value was “active; inactive”; for `NC(Cc1c[nH]c2ccccc12)C(=O)O` (stereo not drawn), “inactive”.
Turning to `CCn1cc(C(=O)O)c(=O)c2ccc(C)nc21`, the result was active.
Regarding `CC(CN1CC(=O)NC(=O)C1)N1CC(=O)NC(=O)C1` (stereo not drawn), the outcome was active.
Regarding `CC(=O)CN(N=O)C(N)=O`, the result was active.
With `C[C@@H]1CC2(O[C@@H]2C)C(=O)O[C@@H]2CCN(C)C/C=C(/COC(=O)[C@]1(C)O)C2=O` (stereo partly drawn), the outcome was “active; inactive”.
Turning to `C1CCNCC1`, the outcome was “inactive; active”.
Next, `Nc1nc(N)nc(-c2cc(Cl)ccc2Cl)n1`: “inactive”.
For the molecule `COc1cc(S(C)=O)ccc1-c1nc2ccncc2[nH]1` (stereo not drawn), the outcome was active.
For `COCCl` the value was “active; inactive”; for `O=CCBr`, “inactive; active”.
In the case of `CC(C)=NO`, the result was active.
Take `CC(=O)C(N=Nc1ccc(Cl)cc1Cl)C(=O)Nc1ccc(-c2ccc(NC(=O)C(N=Nc3ccc(Cl)cc3Cl)C(C)=O)c(C)c2)cc1C` (stereo not drawn): the outcome was inactive.
For `O=CNNC=O` the value was “active”; for `COc1cc(-c2ccc(N=Nc3c(S(=O)(=O)O)cc4cc(S(=O)(=O)O)cc(N)c4c3O)c(OC)c2)ccc1N=Nc1c(S(=O)(=O)O)cc2cc(S(=O)(=O)O)cc(N)c2c1O`, “active”.
For `Cc1ccc(N)cc1Cl` the value was “inactive; active”.
In the case of `CCN(Cc1cccc(S(=O)(=O)[O-])c1)c1ccc(C(=C2C=CC(=[N+](C)C)C=C2)c2ccc(N(CC)Cc3cccc(S(=O)(=O)O)c3)cc2)cc1`, the result was active.
On to `CC1(C)[C@@H](OC2O[C@H](C(=O)O)[C@@H](O)[C@H](O)[C@H]2O[C@H]2O[C@H](C(=O)O)[C@@H](O)[C@H](O)[C@H]2O)CC[C@]2(C)[C@H]3C(=O)C=C4[C@@H]5C[C@@](C)(C(=O)O)CC[C@]5(C)CC[C@@]4(C)[C@]3(C)CC[C@@H]12` (stereo partly drawn), for which the outcome was inactive.
Next, `Nc1cc(Cl)c(-c2cc(Cl)c(N)cc2Cl)cc1Cl`: “inactive”.
Next, `Cc1cc(O)c(C(C)(C)C)cc1Sc1cc(C(C)(C)C)c(O)cc1C`: “inactive”.
Next, `C[C@]12C=CC(=O)C=C1CC[C@@H]1[C@@H]2[C@@H](O)C[C@@]2(C)[C@H]1CC[C@]2(O)C(=O)COC(=O)CCCc1ccc(N(CCCl)CCCl)cc1`: “active”.
Consider `Nc1ncc([N+](=O)[O-])s1`, for which the result was active.
For `O=C(O)CN(CC(=O)O)CC(=O)O` the value was “active”; for `CCN(N)C=O`, “active”; for `CCCN(N=O)C(=N)N[N+](=O)[O-]`, “active”.
For `Clc1cccc(-c2cccc(Cl)c2)c1` the value was “active”; for `COc1ccc(N)c(OC)c1`, “inactive”.
Next, `CN1C(=O)CN=C(c2ccccc2)c2cc(Cl)ccc21`: “inactive”; `c1ccc(N=Nc2ccccc2)cc1`: “active”; `Nc1cc(Cl)cc(C(=O)O)c1Cl`: “active; inactive”.
With `CC1=C2C(=CO[C@@H](C)[C@@H]2C)C(=O)C(C(=O)O)=C1O`, the outcome was active.
On to `CCC1(c2ccccc2)C(=O)N=C(O)NC1=O` (stereo not drawn), for which the outcome was active.
Next, `CCNC(=O)Nc1ncc([N+](=O)[O-])s1`: “active”; `CCN(CC)C(=S)[S-].CCN(CC)C(=S)[S-].[Cd+2]`: “inactive”; `[S-]c1nc2ccccc2s1.[S-]c1nc2ccccc2s1.[Zn+2]`: “inactive; active”.
Turning to `COc1ccc(CN(CCN(C)C)c2ccccn2)cc1`, the outcome is “active; inactive”.
`O=NN1CCCC1`: the outcome is “active; inactive”.
Turning to `Cc1ccc(O)c(C(C)(C)C)c1`, the outcome was inactive.
For `CN(C)Nc1nc(-c2ccc([N+](=O)[O-])o2)cs1` the value was “active; inactive”.
On to `CCN(CC)CCOc1ccc(C(O)(Cc2ccc(OC)cc2)c2ccccc2)cc1` (stereo not drawn), for which the outcome was inactive.
For `CCOc1ccc2c(c1)C(C)=CC(C)(C)N2`, the outcome was “inactive; active”.
For the molecule `C[C@@H]1O[C@@H](OC[C@H]2O[C@@H](Oc3c(-c4ccc(O)c(O)c4)oc4cc(O)cc(O)c4c3=O)[C@H](O)[C@@H](O)[C@@H]2O)[C@H](O)[C@H](O)[C@H]1O`, the outcome was inactive.
For `Nc1ccc(/C=C/c2ccc(N)cc2S(=O)(=O)O)c(S(=O)(=O)O)c1`, the outcome is “inactive; active”.
Turning to `O=C(CCl)c1ccccc1`, the outcome is “inactive; active”.
Next, `O=NN1CCCCCC1`: “active”; `Nc1c(Br)cc(Br)c2c1C(=O)c1ccccc1C2=O`: “active”; `C=CC(=O)O`: “inactive; active”.
For `OC[C@@H](O)[C@@H](O)[C@H](O)[C@H](O)CO` the value was “inactive”; for `O=C(O)C(Cl)Cl`, “active; inactive”.
On to `Cc1cc(Cc2cc(C)cc(C(C)(C)C)c2O)c(O)c(C(C)(C)C)c1`, for which the outcome is “inactive; active”.
Next, `O1[As]2O[As]3O[As]1O[As](O2)O3`: “inactive”.
Next, `C=CC=O`: “inactive”.
Regarding `CC(C)C[C@H]1C(=O)N2CCC[C@H]2[C@]2(O)O[C@](NC(=O)[C@@H]3C=C4c5cccc6[nH]c(Br)c(c56)C[C@H]4N(C)C3)(C(C)C)C(=O)N12`, the result was active.
`O=C1C(O)N=C(c2ccccc2F)c2cc(Cl)ccc2N1CCO` (stereo not drawn): the outcome was inactive.
On to `ClC(Cl)(Cl)C(Cl)(Cl)Cl`, for which the result was active.
Turning to `O=C/C(Cl)=C(/Cl)C(=O)O`, the result was inactive.
Next, `CCOC(=O)CC(SP(=O)(OC)OC)C(=O)OCC` (stereo not drawn): “inactive”; `O=C(O)/C=C/c1ccc(O)c(O)c1`: “active”.
For `CCCCC(CC)CO` (stereo not drawn) the value was “active; inactive”; for `CN(C)C(=O)Cl`, “active”.
Next, `S=[Se]`: “active”; `Cc1ncc([N+](=O)[O-])n1C`: “active”.
As for `CN(N=O)C(=O)NCCC[C@H](N)C(=O)O`, the outcome was active.
With `S=c1nc[nH]c2nc[nH]c12`, the outcome is “inactive; active”.
On to `CN(C)[C@@H]1C(=O)C(C(N)=O)=C(O)[C@@]2(O)C(=O)C3=C(O)c4c(O)cccc4[C@@](C)(O)[C@H]3[C@H](O)[C@@H]12`, for which the outcome is “inactive; active”.
For `COc1cc(N=Nc2ccccc2)ccc1N` the value was “active; inactive”.
